Test system: normal human lung fibroblasts
Test: Ribosomal profiling: translational efficiency in TGFβ-treated fibroblasts
Assay type: cell-based
Outline: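 Genome-wide RPF and total RNA libraries (ARTseq, RNA-Seq) were made from lysates of cycloheximide-treated, PBS-washed cells. After trimming and human-genome mapping, per-gene coding-region counts were compared between RPF and RNA for translational efficiency. Genes scoring low in either fraction were dropped.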

TGFβ
Log2 TE RPS8 (ENSG00000142937, 5 replicates): 1.611
Log2 TE ACTA1 (ENSG00000143632, 5 replicates): −2.018
change in translational profile of ACTA1 caused by TGFβ (ENSG00000143632, Control vs. TGFβ): A (A = <−2.5)
Log2 TE PLEKHA6 (ENSG00000143850, 5 replicates): −2.069
change in translational profile of PLEKHA6 caused by TGFβ (ENSG00000143850, Control vs. TGFβ): B (B = <−1.5 to −2.5)
Log2 TE RPS27A (ENSG00000143947, 5 replicates): 1.275
Log2 TE AFF3 (ENSG00000144218, 5 replicates): 1.146
Log2 TE RPL32 (ENSG00000144713, 5 replicates): 1.916
change in translational profile of RPL32 caused by TGFβ (ENSG00000144713, Control vs. TGFβ): E (E = <1.5 to 2.5)
Log2 TE NICN1 (ENSG00000145029, 5 replicates): 1.403
Log2 TE RPS3A (ENSG00000145425, 5 replicates): 1.661
Log2 TE RPL37 (ENSG00000145592, 5 replicates): 1.808
change in translational profile of RPL37 caused by TGFβ (ENSG00000145592, Control vs. TGFβ): E (E = <1.5 to 2.5)
Log2 TE BTF3 (ENSG00000145741, 5 replicates): 1.13
change in translational profile of BTF3 caused by TGFβ (ENSG00000145741, Control vs. TGFβ): D (D = <1.0 to 1.5)
Log2 TE HIGD2A (ENSG00000146066, 5 replicates): 1.196
change in translational profile of HIGD2A caused by TGFβ (ENSG00000146066, Control vs. TGFβ): D (D = <1.0 to 1.5)
Log2 TE SLC2A12 (ENSG00000146411, 5 replicates): −1.9708
change in translational profile of CREB5 caused by TGFβ (ENSG00000146592, Control vs. TGFβ): D (D = <1.0 to 1.5)
Log2 TE ZNF92 (ENSG00000146757, 5 replicates): −1.238
Log2 TE DENND2A (ENSG00000146966, 5 replicates): −1.156
change in translational profile of DENND2A caused by TGFβ (ENSG00000146966, Control vs. TGFβ): C (C = <−1.0 to −1.5)
Log2 TE RPL10 (ENSG00000147403, 5 replicates): 1.691
change in translational profile of RPL10 caused by TGFβ (ENSG00000147403, Control vs. TGFβ): E (E = <1.5 to 2.5)
Log2 TE EIF3H (ENSG00000147677, 5 replicates): 1.329
change in translational profile of EIF3H caused by TGFβ (ENSG00000147677, Control vs. TGFβ): E (E = <1.5 to 2.5)
Log2 TE SHC3 (ENSG00000148082, 5 replicates): −1.541
Log2 TE RPL7A (ENSG00000148303, 5 replicates): 1.65
change in translational profile of RPL7A caused by TGFβ (ENSG00000148303, Control vs. TGFβ): E (E = <1.5 to 2.5)
change in translational profile of EIF3M caused by TGFβ (ENSG00000149100, Control vs. TGFβ): D (D = <1.0 to 1.5)
Log2 TE RPS3 (ENSG00000149273, 5 replicates): 1.518
change in translational profile of JPH2 caused by TGFβ (ENSG00000149596, Control vs. TGFβ): F (F = >2.5)
change in translational profile of FAU caused by TGFβ (ENSG00000149806, Control vs. TGFβ): D (D = <1.0 to 1.5)
Log2 TE CCDC102B (ENSG00000150636, 5 replicates): −2.977
change in translational profile of CCDC102B caused by TGFβ (ENSG00000150636, Control vs. TGFβ): A (A = <−2.5)
change in translational profile of FRMD4A caused by TGFβ (ENSG00000151474, Control vs. TGFβ): C (C = <−1.0 to −1.5)
Log2 TE CCDC122 (ENSG00000151773, 5 replicates): −1.004
Log2 TE TMEM178 (ENSG00000152154, 5 replicates): 2.016
Log2 TE HOMER1 (ENSG00000152413, 5 replicates): 1.003
change in translational profile of HOMER1 caused by TGFβ (ENSG00000152413, Control vs. TGFβ): D (D = <1.0 to 1.5)
Log2 TE PLEKHH2 (ENSG00000152527, 5 replicates): −1.389
change in translational profile of PLEKHH2 caused by TGFβ (ENSG00000152527, Control vs. TGFβ): B (B = <−1.5 to −2.5)
Log2 TE UTRN (ENSG00000152818, 5 replicates): −1.085
Log2 TE PTPRD (ENSG00000153707, 5 replicates): −1.186
change in translational profile of ANKH caused by TGFβ (ENSG00000154122, Control vs. TGFβ): D (D = <1.0 to 1.5)
Log2 TE ABCA6 (ENSG00000154262, 5 replicates): −2.167
change in translational profile of ABCA6 caused by TGFβ (ENSG00000154262, Control vs. TGFβ): A (A = <−2.5)
change in translational profile of OBSCN caused by TGFβ (ENSG00000154358, Control vs. TGFβ): B (B = <−1.5 to −2.5)
Log2 TE NCAM2 (ENSG00000154654, 5 replicates): −1.135
change in translational profile of ADAMTS5 caused by TGFβ (ENSG00000154736, Control vs. TGFβ): C (C = <−1.0 to −1.5)
change in translational profile of OXA1L caused by TGFβ (ENSG00000155463, Control vs. TGFβ): D (D = <1.0 to 1.5)
Log2 TE C9orf85 (ENSG00000155621, 5 replicates): 1.112
change in translational profile of C9orf85 caused by TGFβ (ENSG00000155621, Control vs. TGFβ): D (D = <1.0 to 1.5)
Log2 TE FMN2 (ENSG00000155816, 5 replicates): −1.246
Log2 TE CLIC2 (ENSG00000155962, 5 replicates): −2.392
Log2 TE UQCRB (ENSG00000156467, 5 replicates): 1.048
Log2 TE RPL30 (ENSG00000156482, 5 replicates): 1.622
change in translational profile of RPL30 caused by TGFβ (ENSG00000156482, Control vs. TGFβ): E (E = <1.5 to 2.5)
